Several values for one entry are separate records, joined by “and”; a condition that tells them apart may be missing. Identical values can stand only once.
Experiments:
chicken embryos [1] = assay: Plasma lipids (total, LDL, HDL cholesterol, triacylglycerols), photometric; details: for HDL-C in plasma, mean ± SD / LDL-C in plasma, mean ± SD / LDL/HDL in plasma, mean ± SD / Total cholesterol in plasma, mean ± SD / Triacylglycerols in plasma, mean ± SD: E12; for LDL/HDL: plasma
Method: The experimental procedures in this study were approved by the Uppsala Ethical Committee for Research on Animals (Permit number C 211/12). Fertilized chicken eggs (Gallus gallus domesticus) were obtained from a local breeder (Ova Production AB, Vittinge, Sweden). The egg weights were 60 ± 4 g (mean and standard deviation). The eggs were incubated at 37.5°C and 60% relative humidity with automatic turning every six hours. The day the eggs were placed in the incubator was defined as embryonic day zero (E0). Chicken embryos were exposed to test substances by air sac injection in eggs incubated for seven days (E7). At this stage, the extraembryonic allantoic blood vessel network has grown to cover the inner shell membrane beneath the air sac and the injected substance will come in direct contact with the vascular network. The exposures were performed as follows: Unfertilized eggs and poorly developing embryos were recognized by candling and were sorted out. Eggs with embryos of normal size were collected and randomly distributed into the different treatment groups. On E7, the blunt end of each egg was wiped with alcohol and a small hole was drilled through the shell above the air sac. The dissolved test substance (20 μl) was deposited onto the inner shell membrane in the air sac and the hole was sealed with melted paraffin wax. Following injection, eggs were held horizontally and rotated for a few seconds to allow dispersal over the inner shell membrane in the air sac. Each egg was marked with a number specifying the treatment group and was placed at a random location in the incubator.
The doses were 150 μg/egg (approximately 2.5 mg/kg egg) for GW7647 and rosiglitazone and 50, 250 or 1000 μg/egg for PFOA (approximately 0.83, 4.2 and 18 mg/kg egg, respectively). Controls were injected with 20 μL vehicle only (DMSO). Due to the large number of embryos required, the experiment was divided into four replicate experiments (replicate A-D) performed the same way but on separate occasions. The number of exposed embryos was 10–15 for each treatment group and replicate.
A subset of randomly chosen embryos from each group (except the 1000 μg/egg group) was sampled for metabolomic analysis of allantoic fluid and blood plasma. Samples of allantoic fluid and blood were collected before decapitation and dissection of the embryo as described below. The egg shell was removed above the air cell without disrupting the inner shell membrane. Allantoic fluid was collected by gently inserting a needle through the inner shell membrane and into the allantoic sac and then aspiring the fluid with a syringe. The samples were placed in microtubes on ice during sampling and then stored at -70°C until processed for metabolomic analysis. Blood was collected from the allantoic artery, just proximal to its first branch. The artery was gently cleaned from membranes, lifted with a small spoon and then punctured with a needle. Blood flowing into the spoon was immediately collected with heparinized capillaries. Blood was stored in heparinized microtubes on ice during sampling and was then centrifuged at a speed of 1300g for 10 min at 4°C. Plasma was collected and stored at -70°C. The embryos were killed by decapitation and dissected immediately following blood sampling.
Total cholesterol, low-density lipoprotein (LDL) cholesterol, high-density lipoprotein (HDL) cholesterol, and triacylglycerols in plasma were analyzed with an Architect c8000 (Abbott Diagnostics, Abbott Park, IL, USA), using a photometric method, at the department of Clinical Chemistry and Pharmacology, Uppsala University Hospital, Sweden. The laboratory is accredited according to EN/ISO 15189 medical laboratory requirements. A total of 80 samples were analyzed; control: 7 females and 8 males; GW7647: 7 females and 8 males; rosiglitazone: 5 females and 12 males; 50 μg PFOA/egg: 11 females and 6 males; 250 μg PFOA/egg: 10 females and 6 males.

chicken embryos [2] = assay: Embryo mortality after in ovo exposure (air sac injection E7, examined E12); format: in vivo, Gallus gallus domesticus
Method: Controls were injected with 20 μL vehicle only (DMSO).
Embryos were dissected and sampled on E12. The treatment group was concealed to the one carrying out embryo dissections and the order of dissection of the embryos was randomized. The embryos were examined for viability and gross morphology, e.g. appearance of the liver. The sex was determined by the presence of a pair of testes or an ovary.
Mortality rates were analyzed with Fisher’s exact test.

[3] = in ovo injection E7, sampled E12, 150 μg/egg
[4] = group PFOA 50 (µg/egg), group mean
[5] = group PFOA 50 (µg/egg), individual embryos
[6] = group PFOA 250 (µg/egg), group mean
[7] = group PFOA 250 (µg/egg), individual embryos
[8] = in ovo injection E7, sampled E12, PFOA 50 μg/egg
[9] = in ovo injection E7, sampled E12, PFOA 250 μg/egg
[10] = in ovo injection E7, sampled E12, PFOA 1000 μg/egg

## CC(C)(Sc1ccc(CCN(CCCCC2CCCCC2)C(=O)NC2CCCCC2)cc1)C(=O)O [GW7647, reference compound]
Chicken embryos [1]; 150 μg/egg
  HDL-C in plasma, mean ± SD: 0.63 ± 0.05 mM
  LDL-C in plasma, mean ± SD: 1.5 ± 0.2 mM
  LDL/HDL in plasma, mean ± SD: 2.4 ± 0.4
  Total cholesterol in plasma, mean ± SD: 5.5 ± 0.3 mM
  Triacylglycerols in plasma, mean ± SD: 4.9 ± 0.7 mM
Chicken embryos [2]; [3]
  Mortality rate: 0%
  Mortality rate, Ratio: 0/40

## O=C(O)C(F)(F)C(F)(F)C(F)(F)C(F)(F)C(F)(F)C(F)(F)C(F)(F)F [PFOA, perfluorooctanoic acid]
Chicken embryos [1]; PFOA 50 μg/egg
  HDL-C in plasma, mean ± SD: 0.59 ± 0.06 mM
  LDL-C in plasma, mean ± SD: 1.5 ± 0.2 mM
  LDL/HDL in plasma, mean ± SD: 2.5 ± 0.3
  Total cholesterol in plasma, mean ± SD: 5.2 ± 0.8 mM
  Triacylglycerols in plasma, mean ± SD: 5.0 ± 0.8 mM
Chicken embryos [1]; PFOA 250 μg/egg
  HDL-C in plasma, mean ± SD: 0.57 ± 0.05 mM
  LDL-C in plasma, mean ± SD: 1.5 ± 0.3 mM
  LDL/HDL in plasma, mean ± SD: 2.6 ± 0.5
  Total cholesterol in plasma, mean ± SD: 5.0 ± 0.5 mM
  Triacylglycerols in plasma, mean ± SD: 5.0 ± 0.7 mM
Chicken embryos [1]; [4]
  HDL-Cholesterol in plasma: 0.59 mM
  LDL-Cholesterol in plasma: 1.5 mM
  Total Cholesterol in plasma: 5.2 mM
  Triacylglycerols in plasma: 5.0 mM
  LDL/HDL: 2.5
Chicken embryos [1]; [5]
  HDL-Cholesterol in plasma: 0.63 mM and 0.53 mM and 0.55 mM and 0.69 mM and 0.59 mM and 0.56 mM and 0.65 mM and 0.49 mM and 0.62 mM and 0.64 mM and 0.48 mM and 0.58 mM
  LDL-Cholesterol in plasma: 1.90 mM and 1.20 mM and 1.50 mM and 1.80 mM and 1.40 mM and 1.30 mM and 1.60 mM and 1.00 mM
  Total Cholesterol in plasma: 6 mM and 4.6 mM and 5.1 mM and 5.7 mM and 5.9 mM and 5 mM and 5.4 mM and 6.1 mM and 3.8 mM and 5.3 mM and 4.3 mM and 4.2 mM and 4.1 mM
  Triacylglycerols in plasma: 6 mM and 4.8 mM and 5.1 mM and 5.7 mM and 5 mM and 4.9 mM and 5.4 mM and 4.5 mM and 6.2 mM and 4.2 mM and 3.6 mM and 3.5 mM
  LDL/HDL: 3.0 and 2.3 and 2.7 and 2.9 and 2.2 and 2.4 and 2.1 and 2.0 and 2.6 and 3.1 and 2.5
Chicken embryos [1]; [6]
  HDL-Cholesterol in plasma: 0.57 mM
  LDL-Cholesterol in plasma: 1.5 mM
  Total Cholesterol in plasma: 5.0 mM
  Triacylglycerols in plasma: 5.0 mM
  LDL/HDL: 2.6
Chicken embryos [1]; [7]
  HDL-Cholesterol in plasma: 0.52 mM and 0.54 mM and 0.49 mM and 0.56 mM and 0.55 mM and 0.57 mM and 0.51 mM and 0.64 mM and 0.58 mM and 0.61 mM and 0.63 mM and 0.53 mM and 0.6 mM
  LDL-Cholesterol in plasma: 2.20 mM and 1.40 mM and 1.50 mM and 1.10 mM and 1.20 mM and 1.80 mM and 1.30 mM and 1.70 mM and 1.60 mM
  Total Cholesterol in plasma: 5.2 mM and 4 mM and 4.9 mM and 5.7 mM and 5 mM and 5.4 mM and 4.2 mM and 4.4 mM and 4.7 mM and 5.1 mM
  Triacylglycerols in plasma: 5.1 mM and 5.7 mM and 3.8 mM and 4.5 mM and 6 mM and 4.7 mM and 5.4 mM and 4.8 mM and 4.2 mM and 4.9 mM
  LDL/HDL: 4.2 and 2.6 and 2.9 and 2.7 and 2.0 and 2.4 and 2.8 and 2.1 and 1.7 and 2.2
Chicken embryos [2]; PFOA 1000 μg/egg, replicate A
  Mortality rate: 40%
Chicken embryos [2]; PFOA 1000 μg/egg, replicate B
  Mortality rate: 60%
Chicken embryos [2]; PFOA 1000 μg/egg, replicate C
  Mortality rate: 33%
Chicken embryos [2]; PFOA 1000 μg/egg, replicate D
  Mortality rate: 7%
Chicken embryos [2]; exposed E7 to E12
  Dose with increased mortality: 18 mg/kg egg
  Dose with no effect on survival (no effect level): 4.2 mg/kg egg
Chicken embryos [2]; follow-up study, PFOA 1000 μg/egg, N = 25, control 12%
  Mortality: 40%
Chicken embryos [2]; [8]
  Mortality rate: 5%
  Mortality rate, Ratio: 2/40
Chicken embryos [2]; [9]
  Mortality rate: 2.5%
  Mortality rate, Ratio: 1/40
Chicken embryos [2]; [10]
  Mortality rate: 35% and 35 ^*** %
  Mortality rate, Ratio: 19/54

## CN(CCOc1ccc(CC2SC(=O)NC2=O)cc1)c1ccccn1 (stereo not shown) [Rosiglitazone, rosiglitazone, reference compound]
Chicken embryos [1]; 150 μg/egg
  HDL-C in plasma, mean ± SD: 0.60 ± 0.06 mM
  LDL-C in plasma, mean ± SD: 1.5 ± 0.2 mM
  LDL/HDL in plasma, mean ± SD: 2.5 ± 0.4
  Total cholesterol in plasma, mean ± SD: 5.2 ± 0.4 mM
  Triacylglycerols in plasma, mean ± SD: 5.4 ± 0.8 mM
Chicken embryos [1]; group mean
  HDL-Cholesterol in plasma: 0.60 mM
  LDL-Cholesterol in plasma: 1.5 mM
  Total Cholesterol in plasma: 5.2 mM
  Triacylglycerols in plasma: 5.4 mM
  LDL/HDL: 2.5
Chicken embryos [1]; individual embryos
  HDL-Cholesterol in plasma: 0.65 mM and 0.59 mM and 0.53 mM and 0.58 mM and 0.55 mM and 0.71 mM and 0.6 mM and 0.7 mM and 0.57 mM and 0.51 mM and 0.69 mM and 0.52 mM and 0.61 mM
  LDL-Cholesterol in plasma: 2.00 mM and 1.70 mM and 1.20 mM and 1.50 mM and 1.10 mM and 1.60 mM and 1.40 mM and 1.00 mM and 1.80 mM
  Total Cholesterol in plasma: 5.8 mM and 4.8 mM and 4.1 mM and 5.4 mM and 4.9 mM and 5.5 mM and 5.9 mM and 5.2 mM and 5.3 mM and 5 mM and 5.6 mM
  Triacylglycerols in plasma: 4.5 mM and 4.3 mM and 4.7 mM and 6 mM and 5 mM and 5.3 mM and 5.6 mM and 4.6 mM and 7.1 mM and 6.3 mM and 6.4 mM and 5.5 mM
  LDL/HDL: 3.1 and 2.9 and 2.3 and 2.6 and 2.7 and 2.1 and 2.8 and 1.7 and 2.5 and 2.0 and 2.2 and 3.0 and 3.5
Chicken embryos [2]; [3]
  Mortality rate: 5%
  Mortality rate, Ratio: 2/40

Source: article PMC4666608, “Metabolic Profiling of Chicken Embryos Exposed to Perfluorooctanoic Acid (PFOA) and Agonists to Peroxisome Proliferator-Activated Receptors” (PLoS ONE, 2015)
